How the values were obtained:
Test in all cases: radiometric filter-binding kinase assay, Kinase HotSpot
[1] = molecular target: ABL1 (human) (UniProt P00519); conditions: compound 0.5 µM; ATP 10 µM
[2] = molecular target: ACVR1B (human) (UniProt P36896); conditions: compound 0.5 µM; ATP 10 µM
[3] = molecular target: AKT1 (human) (UniProt P31749); conditions: compound 0.5 µM; ATP 10 µM
[4] = molecular target: AURKA (human) (UniProt O14965); conditions: compound 0.5 µM; ATP 10 µM
[5] = molecular target: BRSK1 (human) (UniProt Q8TDC3); conditions: compound 0.5 µM; ATP 10 µM
[6] = molecular target: CAMK2G (human) (UniProt Q13555); conditions: compound 0.5 µM; ATP 10 µM
[7] = molecular target: CAMK4 (human) (UniProt Q16566); conditions: compound 0.5 µM; ATP 10 µM
[8] = molecular target: CAMKK1 (human) (UniProt Q8N5S9); conditions: compound 0.5 µM; ATP 10 µM
[9] = molecular target: CDC42BPB (human) (UniProt Q9Y5S2); conditions: compound 0.5 µM; ATP 10 µM
[10] = molecular target: CDK2 CCNA2 (human) (UniProt P24941+P20248); conditions: compound 0.5 µM
[11] = molecular target: CDK5 CDK5R1 p35 (human) (UniProt Q00535+Q15078); conditions: compound 0.5 µM
[12] = molecular target: DCLK2 (human) (UniProt Q8N568); conditions: compound 0.5 µM; ATP 10 µM
[13] = molecular target: EPHA7 (human) (UniProt Q15375); conditions: compound 0.5 µM; ATP 10 µM
[14] = molecular target: FRK (human) (UniProt P42685); conditions: compound 0.5 µM; ATP 10 µM
[15] = molecular target: IKBKB (human) (UniProt O14920); conditions: compound 0.5 µM; ATP 10 µM
[16] = molecular target: INSR (human) (UniProt P06213); conditions: compound 0.5 µM; ATP 10 µM
[17] = molecular target: INSRR (human) (UniProt P14616); conditions: compound 0.5 µM; ATP 10 µM
[18] = molecular target: MAP3K10 (human) (UniProt Q02779); conditions: compound 0.5 µM; ATP 10 µM
[19] = molecular target: MAP3K5 (human) (UniProt Q99683); conditions: compound 0.5 µM; ATP 10 µM
[20] = molecular target: MAP3K9 (human) (UniProt P80192); conditions: compound 0.5 µM; ATP 10 µM
[21] = molecular target: MARK2 (human) (UniProt Q7KZI7); conditions: compound 0.5 µM; ATP 10 µM
[22] = molecular target: MATK (human) (UniProt P42679); conditions: compound 0.5 µM; ATP 10 µM
[23] = molecular target: MELK (human) (UniProt Q14680); conditions: compound 0.5 µM; ATP 10 µM
[24] = molecular target: MKNK2 (human) (UniProt Q9HBH9); conditions: compound 0.5 µM; ATP 10 µM
[25] = molecular target: MUSK (human) (UniProt O15146); conditions: compound 0.5 µM; ATP 10 µM
[26] = molecular target: NEK9 (human) (UniProt Q8TD19); conditions: compound 0.5 µM; ATP 10 µM
[27] = molecular target: PAK2 (human) (UniProt Q13177); conditions: compound 0.5 µM; ATP 10 µM
[28] = molecular target: PASK (human) (UniProt Q96RG2); conditions: compound 0.5 µM; ATP 10 µM
[29] = molecular target: PDGFRA (human) (UniProt P16234); conditions: compound 0.5 µM; ATP 10 µM
[30] = molecular target: PDPK1 (human) (UniProt O15530); conditions: compound 0.5 µM; ATP 10 µM
[31] = molecular target: PKN2 (human) (UniProt Q16513); conditions: compound 0.5 µM; ATP 10 µM
[32] = molecular target: PLK2 (human) (UniProt Q9NYY3); conditions: compound 0.5 µM; ATP 10 µM
[33] = molecular target: PRKD1 (human) (UniProt Q15139); conditions: compound 0.5 µM; ATP 10 µM
[34] = molecular target: PRKD3 (human) (UniProt O94806); conditions: compound 0.5 µM; ATP 10 µM
[35] = molecular target: PTK2 (human) (UniProt Q05397); conditions: compound 0.5 µM; ATP 10 µM
[36] = molecular target: RPS6KA3 KD1 KD2 (human) (UniProt P51812); conditions: compound 0.5 µM; ATP 10 µM
[37] = molecular target: RPS6KA6 KD1 KD2 (human) (UniProt Q9UK32); conditions: compound 0.5 µM; ATP 10 µM
[38] = molecular target: SIK2 (human) (UniProt Q9H0K1); conditions: compound 0.5 µM; ATP 10 µM
[39] = molecular target: SRPK2 (human) (UniProt P78362); conditions: compound 0.5 µM; ATP 10 µM
[40] = molecular target: STK39 (human) (UniProt Q9UEW8); conditions: compound 0.5 µM
[41] = molecular target: TAOK1 (human) (UniProt Q7L7X3); conditions: compound 0.5 µM; ATP 10 µM
[42] = molecular target: WNK2 (human) (UniProt Q9Y3S1); conditions: compound 0.5 µM; ATP 10 µM

MKNK2 (human), sequence (Q9HBH9 whole entry, looked up): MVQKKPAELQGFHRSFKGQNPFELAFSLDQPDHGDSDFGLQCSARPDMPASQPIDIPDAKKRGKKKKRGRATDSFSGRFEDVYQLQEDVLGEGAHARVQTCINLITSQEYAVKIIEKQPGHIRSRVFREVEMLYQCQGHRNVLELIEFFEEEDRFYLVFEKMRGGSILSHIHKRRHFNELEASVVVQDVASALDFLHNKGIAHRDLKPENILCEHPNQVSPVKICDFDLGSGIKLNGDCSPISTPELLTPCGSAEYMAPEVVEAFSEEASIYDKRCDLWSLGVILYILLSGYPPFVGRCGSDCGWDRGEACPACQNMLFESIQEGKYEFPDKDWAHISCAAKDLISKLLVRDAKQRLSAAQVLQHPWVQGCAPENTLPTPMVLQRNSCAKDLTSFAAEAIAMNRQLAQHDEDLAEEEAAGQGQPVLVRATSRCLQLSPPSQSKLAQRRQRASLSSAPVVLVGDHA
PAK2 (human), sequence (Q13177 whole entry, looked up): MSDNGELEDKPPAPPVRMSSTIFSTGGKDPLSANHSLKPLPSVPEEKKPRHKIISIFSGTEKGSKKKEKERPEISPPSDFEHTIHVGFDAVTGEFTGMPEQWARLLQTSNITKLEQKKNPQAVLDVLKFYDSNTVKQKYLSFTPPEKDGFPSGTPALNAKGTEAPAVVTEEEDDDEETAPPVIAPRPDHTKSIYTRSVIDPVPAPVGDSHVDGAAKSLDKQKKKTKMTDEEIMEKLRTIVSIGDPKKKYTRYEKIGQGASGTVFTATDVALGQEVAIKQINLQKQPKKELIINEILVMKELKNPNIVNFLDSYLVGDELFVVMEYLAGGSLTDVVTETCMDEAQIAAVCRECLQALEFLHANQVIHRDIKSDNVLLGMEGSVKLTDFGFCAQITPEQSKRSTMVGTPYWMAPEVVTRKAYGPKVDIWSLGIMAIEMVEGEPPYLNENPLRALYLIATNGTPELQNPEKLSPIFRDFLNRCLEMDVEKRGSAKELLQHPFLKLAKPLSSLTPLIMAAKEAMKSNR
INSR (human), sequence (P06213 whole entry, looked up): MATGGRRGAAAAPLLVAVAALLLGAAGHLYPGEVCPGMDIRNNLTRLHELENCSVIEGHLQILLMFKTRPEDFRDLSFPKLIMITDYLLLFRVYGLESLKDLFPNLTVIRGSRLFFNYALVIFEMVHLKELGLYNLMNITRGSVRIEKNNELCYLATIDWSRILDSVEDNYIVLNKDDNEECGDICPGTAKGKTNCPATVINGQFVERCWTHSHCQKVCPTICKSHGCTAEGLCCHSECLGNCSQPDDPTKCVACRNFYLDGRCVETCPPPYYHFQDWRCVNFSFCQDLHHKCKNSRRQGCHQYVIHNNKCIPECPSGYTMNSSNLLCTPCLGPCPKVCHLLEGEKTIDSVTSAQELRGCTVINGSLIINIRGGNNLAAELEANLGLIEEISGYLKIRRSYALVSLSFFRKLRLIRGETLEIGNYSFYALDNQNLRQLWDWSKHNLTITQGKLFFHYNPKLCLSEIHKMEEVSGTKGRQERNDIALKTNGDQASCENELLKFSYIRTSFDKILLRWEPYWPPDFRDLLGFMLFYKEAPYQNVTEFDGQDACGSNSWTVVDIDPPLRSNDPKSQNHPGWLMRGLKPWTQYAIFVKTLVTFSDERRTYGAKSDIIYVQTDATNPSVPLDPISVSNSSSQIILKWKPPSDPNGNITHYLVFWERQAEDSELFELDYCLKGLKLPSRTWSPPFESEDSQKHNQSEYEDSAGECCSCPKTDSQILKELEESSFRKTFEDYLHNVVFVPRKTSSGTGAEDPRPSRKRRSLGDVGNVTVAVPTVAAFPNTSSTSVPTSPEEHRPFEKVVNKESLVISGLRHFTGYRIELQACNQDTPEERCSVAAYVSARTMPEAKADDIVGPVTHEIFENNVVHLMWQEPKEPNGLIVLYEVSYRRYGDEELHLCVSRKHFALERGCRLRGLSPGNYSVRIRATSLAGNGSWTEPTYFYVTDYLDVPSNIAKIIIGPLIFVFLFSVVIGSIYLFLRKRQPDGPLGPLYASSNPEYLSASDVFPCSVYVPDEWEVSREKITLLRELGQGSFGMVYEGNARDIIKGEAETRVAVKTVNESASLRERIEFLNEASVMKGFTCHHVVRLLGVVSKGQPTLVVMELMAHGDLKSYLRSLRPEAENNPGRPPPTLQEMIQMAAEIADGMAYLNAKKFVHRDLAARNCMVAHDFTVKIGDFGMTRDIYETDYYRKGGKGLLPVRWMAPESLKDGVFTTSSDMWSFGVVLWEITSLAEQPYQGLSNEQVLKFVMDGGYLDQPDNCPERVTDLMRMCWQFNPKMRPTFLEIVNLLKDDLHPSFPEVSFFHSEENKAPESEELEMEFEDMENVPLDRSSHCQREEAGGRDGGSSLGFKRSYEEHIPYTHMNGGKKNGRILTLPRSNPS
DCLK2 (human), sequence (Q8N568 whole entry, looked up): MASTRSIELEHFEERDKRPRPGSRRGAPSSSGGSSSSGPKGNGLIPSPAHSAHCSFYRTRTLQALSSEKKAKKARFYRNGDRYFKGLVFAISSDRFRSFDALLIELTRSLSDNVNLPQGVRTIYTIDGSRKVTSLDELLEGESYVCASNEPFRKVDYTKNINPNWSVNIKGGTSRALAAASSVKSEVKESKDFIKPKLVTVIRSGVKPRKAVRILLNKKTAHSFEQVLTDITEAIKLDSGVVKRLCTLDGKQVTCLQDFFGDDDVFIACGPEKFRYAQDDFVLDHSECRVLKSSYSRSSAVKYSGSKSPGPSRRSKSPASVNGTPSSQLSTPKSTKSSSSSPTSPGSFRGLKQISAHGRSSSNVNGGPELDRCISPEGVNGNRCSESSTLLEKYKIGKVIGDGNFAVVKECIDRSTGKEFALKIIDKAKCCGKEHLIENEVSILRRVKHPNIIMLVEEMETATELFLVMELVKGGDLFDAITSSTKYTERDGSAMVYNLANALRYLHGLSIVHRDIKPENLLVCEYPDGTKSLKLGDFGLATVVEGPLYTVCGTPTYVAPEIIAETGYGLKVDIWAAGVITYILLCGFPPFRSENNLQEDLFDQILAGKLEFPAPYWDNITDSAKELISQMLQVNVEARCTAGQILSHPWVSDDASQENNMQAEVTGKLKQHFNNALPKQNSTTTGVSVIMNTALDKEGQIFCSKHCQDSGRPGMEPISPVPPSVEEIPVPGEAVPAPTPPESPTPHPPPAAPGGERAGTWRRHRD
CAMK2G (human), sequence (Q13555 whole entry, looked up): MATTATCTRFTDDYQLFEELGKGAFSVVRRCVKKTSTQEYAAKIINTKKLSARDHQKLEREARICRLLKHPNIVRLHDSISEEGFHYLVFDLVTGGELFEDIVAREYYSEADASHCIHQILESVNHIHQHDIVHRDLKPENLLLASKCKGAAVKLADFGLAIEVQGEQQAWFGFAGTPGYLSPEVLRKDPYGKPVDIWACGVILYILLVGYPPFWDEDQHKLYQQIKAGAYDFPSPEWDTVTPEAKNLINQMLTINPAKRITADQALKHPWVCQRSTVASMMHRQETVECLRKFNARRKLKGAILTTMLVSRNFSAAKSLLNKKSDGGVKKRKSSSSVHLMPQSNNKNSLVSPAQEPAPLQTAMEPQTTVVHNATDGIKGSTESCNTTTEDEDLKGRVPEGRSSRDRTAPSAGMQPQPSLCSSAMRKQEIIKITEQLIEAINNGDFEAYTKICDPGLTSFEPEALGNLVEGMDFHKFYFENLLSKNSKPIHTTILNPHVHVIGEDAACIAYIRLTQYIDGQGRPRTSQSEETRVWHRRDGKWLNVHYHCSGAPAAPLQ
EPHA7 (human), sequence (Q15375 whole entry, looked up): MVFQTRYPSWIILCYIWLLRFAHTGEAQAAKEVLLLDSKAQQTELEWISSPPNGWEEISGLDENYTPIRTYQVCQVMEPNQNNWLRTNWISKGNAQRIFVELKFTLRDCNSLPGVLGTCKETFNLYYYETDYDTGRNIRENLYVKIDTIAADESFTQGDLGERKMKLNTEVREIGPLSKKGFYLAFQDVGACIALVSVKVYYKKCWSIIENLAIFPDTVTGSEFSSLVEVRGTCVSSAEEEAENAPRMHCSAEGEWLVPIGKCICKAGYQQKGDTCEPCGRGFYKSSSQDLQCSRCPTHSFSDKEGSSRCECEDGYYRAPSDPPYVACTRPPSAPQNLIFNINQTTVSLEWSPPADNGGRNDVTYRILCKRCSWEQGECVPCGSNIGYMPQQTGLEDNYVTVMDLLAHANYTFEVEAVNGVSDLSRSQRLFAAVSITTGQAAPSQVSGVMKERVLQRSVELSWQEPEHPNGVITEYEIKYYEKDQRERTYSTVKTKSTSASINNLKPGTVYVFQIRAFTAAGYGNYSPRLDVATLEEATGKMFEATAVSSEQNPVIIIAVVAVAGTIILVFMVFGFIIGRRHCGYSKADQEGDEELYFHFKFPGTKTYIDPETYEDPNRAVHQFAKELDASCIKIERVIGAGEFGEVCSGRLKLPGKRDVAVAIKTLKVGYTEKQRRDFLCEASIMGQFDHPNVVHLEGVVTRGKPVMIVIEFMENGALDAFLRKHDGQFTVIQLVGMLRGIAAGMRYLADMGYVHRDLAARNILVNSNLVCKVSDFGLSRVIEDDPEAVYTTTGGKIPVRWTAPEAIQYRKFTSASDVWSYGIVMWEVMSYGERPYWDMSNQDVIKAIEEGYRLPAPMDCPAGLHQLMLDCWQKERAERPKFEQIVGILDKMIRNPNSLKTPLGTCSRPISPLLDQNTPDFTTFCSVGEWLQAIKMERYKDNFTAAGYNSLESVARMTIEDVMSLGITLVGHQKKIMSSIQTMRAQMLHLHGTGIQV

With `O=c1c(-c2ccc(F)cc2)c(-c2ccncc2)[nH]n1-c1ccc(Cl)cc1` the residual activity [1] was 98.1%, the residual activity [2] was 123% and the residual activity [3] was 96.4%. For the same compound, the residual activity [4] was 94%, the residual activity [5] was 88.7% and the residual activity [6] was 109%. It also gave a residual activity [7] of 104%, a residual activity [8] of 98.5% and a residual activity [9] of 103%. For the same compound, the residual activity ([10]; ATP 10 µM) was 89.9%, the residual activity ([11]; ATP 10 µM) was 104% and the residual activity [12] was 99.9%. The residual activity [13] was 98.5%, the residual activity [14] was 78.5% and the residual activity [15] was 102%. For the same compound, the residual activity [16] was 110%, the residual activity [17] was 95.4% and the residual activity [18] was 88.1%. It also gave a residual activity [19] of 115%, a residual activity [20] of 103% and a residual activity [21] of 88.8%. It also gave a residual activity [22] of 86%, a residual activity [23] of 86.5% and a residual activity [24] of 97.2%. The residual activity [25] was 102%, the residual activity [26] was 107% and the residual activity [27] was 102%. It also gave a residual activity [28] of 93.6%, a residual activity [29] of 103% and a residual activity [30] of 104%. It also gave a residual activity [31] of 96.4%, a residual activity [32] of 92.5% and a residual activity [33] of 84.7%. It also gave a residual activity [34] of 74.5%, a residual activity [35] of 95.1% and a residual activity [36] of 94.3%. For the same compound, the residual activity [37] was 90.3%, the residual activity [38] was 101% and the residual activity [39] was 94.4%. For the same compound, the residual activity ([40]; ATP 10 µM) was 128%, the residual activity [41] was 102% and the residual activity [42] was 112%.

`O=c1[nH]c2ccccc2n1C1CCN(Cc2ccc(-c3nc4cc5[nH]cnc5cc4nc3-c3ccccc3)cc2)CC1` showed a residual activity [1] of 98.2%, a residual activity [2] of 111% and a residual activity [3] of 114%. For the same compound, the residual activity [4] was 99%, the residual activity [5] was 98.3% and the residual activity [6] was 105%. For the same compound, the residual activity [7] was 101%, the residual activity [8] was 117% and the residual activity [9] was 101%. It also gave a residual activity [10] of 98%, a residual activity [11] of 91.9% and a residual activity [12] of 107%. It also gave a residual activity [13] of 109%, a residual activity [14] of 102% and a residual activity [15] of 101%. The residual activity [16] was 102%, the residual activity [17] was 101% and the residual activity [18] was 102%. It also gave a residual activity [19] of 93.8%, a residual activity [20] of 93.9% and a residual activity [21] of 92.2%. For the same compound, the residual activity [22] was 102%, the residual activity [23] was 110% and the residual activity [24] was 98.7%. It also gave a residual activity [25] of 96.8%, a residual activity [26] of 99.2% and a residual activity [27] of 99.2%. It also gave a residual activity [28] of 110%, a residual activity [29] of 98.2% and a residual activity [30] of 107%. The residual activity [31] was 73.2%, the residual activity [32] was 95.5% and the residual activity [33] was 94.7%. For the same compound, the residual activity [34] was 99.5%, the residual activity [35] was 108% and the residual activity [36] was 96.6%. It also gave a residual activity [37] of 109%, a residual activity [38] of 114% and a residual activity [39] of 116%. The residual activity [40] was 98.2%, the residual activity [41] was 102% and the residual activity [42] was 115%.

`Nc1ncnc2c1cnn2-c1ccccc1` gave a residual activity [1] of 99.4%, a residual activity [2] of 99.4% and a residual activity [3] of 103%. It also gave a residual activity [4] of 91.9%, a residual activity [5] of 90.2% and a residual activity [6] of 105%. For the same compound, the residual activity [7] was 104%, the residual activity [8] was 84.8% and the residual activity [9] was 96.7%. It also gave a residual activity ([10]; ATP 10 µM) of 108%, a residual activity ([11]; ATP 10 µM) of 99.2% and a residual activity [12] of 101%. For the same compound, the residual activity [13] was 99.2%, the residual activity [14] was 101% and the residual activity [15] was 97.3%. The residual activity [16] was 103%, the residual activity [17] was 106% and the residual activity [18] was 88.6%. The residual activity [19] was 100%, the residual activity [20] was 106% and the residual activity [21] was 95.3%. It also gave a residual activity [22] of 89.9%, a residual activity [23] of 92.6% and a residual activity [24] of 72.7%. For the same compound, the residual activity [25] was 88%, the residual activity [26] was 110% and the residual activity [27] was 98.1%. It also gave a residual activity [28] of 96.8%, a residual activity [29] of 103% and a residual activity [30] of 104%. It also gave a residual activity [31] of 125%, a residual activity [32] of 99.2% and a residual activity [33] of 98.1%. For the same compound, the residual activity [34] was 87.3%, the residual activity [35] was 94.9% and the residual activity [36] was 95%. The residual activity [37] was 94.1%, the residual activity [38] was 99.8% and the residual activity [39] was 104%. The residual activity ([40]; ATP 10 µM) was 107%, the residual activity [41] was 89.5% and the residual activity [42] was 114%.

With `O=c1c2ccccc2[nH]c(=S)n1CCN1CCC(=C(c2ccc(F)cc2)c2ccc(F)cc2)CC1` the residual activity [1] was 106%, the residual activity [2] was 103% and the residual activity [3] was 98.3%. For the same compound, the residual activity [4] was 100%, the residual activity [5] was 98.3% and the residual activity [6] was 97.9%. For the same compound, the residual activity [7] was 94.7%, the residual activity [8] was 110% and the residual activity [9] was 106%. It also gave a residual activity ([10]; ATP 10 µM) of 99.9%, a residual activity ([11]; ATP 10 µM) of 101% and a residual activity [12] of 101%. For the same compound, the residual activity [13] was 96.9%, the residual activity [14] was 100% and the residual activity [15] was 99.5%. It also gave a residual activity [16] of 94.3%, a residual activity [17] of 98.3% and a residual activity [18] of 99.6%. For the same compound, the residual activity [19] was 98.1%, the residual activity [20] was 111% and the residual activity [21] was 108%. It also gave a residual activity [22] of 92.9%, a residual activity [23] of 104% and a residual activity [24] of 89.5%. It also gave a residual activity [25] of 93.6%, a residual activity [26] of 97% and a residual activity [27] of 103%. For the same compound, the residual activity [28] was 99%, the residual activity [29] was 97% and the residual activity [30] was 99.2%. It also gave a residual activity [31] of 97.2%, a residual activity [32] of 104% and a residual activity [33] of 101%. It also gave a residual activity [34] of 101%, a residual activity [35] of 105% and a residual activity [36] of 99.8%. The residual activity [37] was 101%, the residual activity [38] was 89.7% and the residual activity [39] was 94.1%. It also gave a residual activity ([40]; ATP 10 µM) of 96.8%, a residual activity [41] of 101% and a residual activity [42] of 96.3%.

Source: the kinase profiling compilation of Christmann-Franck et al. (2016)
